# Results taken from patent US20220194945A1, “Imidazolopyridine Compounds For IRE1 Inhibition” (Optikira, LLC, priority 2019, published 2022).
# Tests used:
# XBP1 splicing = assay: Cellular XBP1 splicing assay; type: cell-based; details: ARPE-19 cells stably expressing XBP1-nano-luciferase, thapsigargin 150 nM, 4 hour incubation
# Procedure: Cellular XBP1 Splicing Assay
# ARPE-19 cells stably expressing XBP1 (a.a. 1-376) with nano-luciferase gene sequence linked so it is in frame when XBP1 is spliced, were cultured in F12 media, 10% FBS, 0.044% sodium bicarbonate, 150 μg/ml hygromycin B and seeded for assays at 5,000 cells in 384 well plates in culture media without hygromycin B and incubated at 37° C./5% CO2. After overnight incubation test compounds were added to the cell plate in a 10-point ½ log dilution series in duplicate (final DMSO concentration 0.117%). After further incubation of 30 minutes thapsigargin was added (final concentration 150 nM) and then another 4 hour incubation. A NanoLuc luciferase assay (Promega) was used according to the manufacturer's instructions to detect the luciferase and luminescence measured on a luminometer (EnVision, PerkinElmer). IC50 values calculated by fitting a sigmoidal curve to percent inhibition of control of compound concentration.
# (§1) In vitro assay data are for the inhibition of RNase activity of IRE1α. Cellular assay (IC50 data) are for the XBP1 splicing assay.
# IRE1α = target: T1, IRE1α (Homo sapiens, UniProt O75460); assay: Biochemical assay: inhibition of RNase activity of IRE1α; details: IRE1α kinase (E31-11G, Signal Chem) 0.325 nM, substrate 100 nM, 30 min pre-incubation, read-out: In vitro assay IC50
# T1 construct: purchased Signal Chem E31-11G
# Procedure: Biochemical Assay: Inhibition of RNase activity of IRE1α
# The RNase reactions were performed in 384 well black ProxiPlate-384 Plus plates (PERKIN Elmer) using 50 mM Tris assay buffer with 0.5 mM MgCl2, 10 mM KCl, 0.03% Tween, 2 mM DTT and 1% DMSO. Test compounds were prepared on the day of assay and dispensed using D300 digital dispenser as a 10-point ½ log dilution series in duplicate, normalized to a final DMSO concentration of […]. Test compounds were pre-incubated for 30 min at room temperature with IRE1α kinase (E31-11G from Signal Chem) in 2.5 μL of assay buffer. Then 2.5 μl of assay buffer containing substrate (5′ Alexa Fluor 647-rCrArU rGrUrC rCrGrC rArGrC rGrCrArUrG-Iowa Black RQ quencher 3′) added, giving a final concentration of enzyme of 0.325 nM and of substrate of 100 nM. After 20 minutes incubation at room temperature the reactions were stopped by added 5 μL of 5M urea, incubated at room temperature for 10 minutes and fluorescence measured on a plate reader (EnVision, PerkinElmer) IC50 values calculated by fitting a sigmoidal curve to percent inhibition of control versus compound concentration.
# as §1
# T1 sequence (O75460 468-977 limits assumed): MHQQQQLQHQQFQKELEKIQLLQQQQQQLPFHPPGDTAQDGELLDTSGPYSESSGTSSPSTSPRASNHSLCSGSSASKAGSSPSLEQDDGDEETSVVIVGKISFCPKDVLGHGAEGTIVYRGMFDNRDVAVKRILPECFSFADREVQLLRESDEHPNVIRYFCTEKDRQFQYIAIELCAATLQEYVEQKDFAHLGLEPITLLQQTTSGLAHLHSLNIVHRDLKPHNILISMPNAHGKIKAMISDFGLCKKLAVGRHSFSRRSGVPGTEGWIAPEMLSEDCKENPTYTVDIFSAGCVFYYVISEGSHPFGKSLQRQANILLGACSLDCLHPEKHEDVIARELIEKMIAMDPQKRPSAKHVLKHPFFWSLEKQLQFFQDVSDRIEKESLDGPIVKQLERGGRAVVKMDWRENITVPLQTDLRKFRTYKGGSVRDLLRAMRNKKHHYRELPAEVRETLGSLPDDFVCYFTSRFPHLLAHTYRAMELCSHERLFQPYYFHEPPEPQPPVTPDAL
IC50 (XBP1 splicing; Homo sapiens) [nM],IC50 (IRE1α) [nM],Compound,IC50 (XBP1 splicing) [nM]
510,290,"CC(C)c1nc(-c2ccc(NS(=O)(=O)c3ccccc3Cl)c(F)c2)c2c(N)ncc([C@H]3CC[C@@H](N)CC3)n12 [Example 1, N-(4-(8-Amino-5-((1s,4s)-4-aminocyclohexyl)-3-isopropylimidazo[1,5-a]pyrazin-1-yl)-2-fluorophenyl)-2-chlorobenzenesulfonamide]",–
15,15,"CC(C)c1nc(-c2ccc(NS(=O)(=O)c3ccccc3Cl)c(F)c2)c2c(N)ncc([C@H]3CC[C@H](N)CC3)n12 [Example 2, N-(4-(8-Amino-5-((1r,4r)-4-aminocyclohexyl)-3-isopropylimidazo[1,5-a]pyrazin-1-yl)-2-fluorophenyl)-2-chlorobenzenesulfonamide]",–
300,280,"CC(C)c1nc(-c2ccc(NS(=O)(=O)c3ccccc3Cl)c(F)c2)c2c(N)ncc([C@H]3CC[C@@H](NC4COC4)CC3)n12 [Example 3, N-(4-(8-Amino-3-isopropyl-5-((1s,4s)-4-(oxetan-3-ylamino)cyclohexyl)imidazo[1,5-a]pyrazin-1-yl)-2-fluorophenyl)-2-chlorobenzenesulfonamide]",–
98,150,"CC(C)c1nc(-c2ccc(NS(=O)(=O)c3ccccc3F)c(F)c2)c2c(N)ncc(C3=CCC(NC4COC4)CC3)n12 (centres unmarked) [Example 6, N-(4-(8-Amino-3-isopropyl-5-(4-(oxetan-3-ylamino)cyclohex-1-en-1-yl)imidazo[1,5-a]pyrazin-1-yl)-2-fluorophenyl)-2-fluorobenzenesulfonamide]",–
540,150,"CC(C)c1nc(-c2cc(F)c(NS(=O)(=O)c3ccccc3F)cc2F)c2c(N)ncc(C3=CCC(NC4COC4)CC3)n12 (centres unmarked) [Example 7, N-(4-(8-Amino-3-isopropyl-5-(4-(oxetan-3-ylamino)cyclohex-1-en-1-yl)imidazo[1,5-a]pyrazin-1-yl)-2,5-difluorophenyl)-2-fluorobenzenesulfonamide]",–
170,110,"CC(C)c1nc(-c2cc(F)c(NS(=O)(=O)c3ccccc3Cl)cc2F)c2c(N)ncc(C3=CCC(NC4COC4)CC3)n12 (centres unmarked) [Example 8, N-(4-(8-Amino-3-isopropyl-5-(4-(oxetan-3-ylamino)cyclohex-1-en-1-yl)imidazo[1,5-a]pyrazin-1-yl)-2,5-difluorophenyl)-2-chlorobenzenesulfonamide]",–
760,69,"CC(C)c1nc(-c2ccc(NS(=O)(=O)c3ccccc3F)c(F)c2Cl)c2c(N)ncc(C3=CCC(NC4COC4)CC3)n12 (centres unmarked) [Example 9, N-(4-(8-Amino-3-isopropyl-5-(4-(oxetan-3-ylamino)cyclohex-1-en-1-yl)imidazo[1,5-a]pyrazin-1-yl)-3-chloro-2-fluorophenyl)-2-fluorobenzenesulfonamide]",–
7700,61,"CC(C)c1nc(-c2cnc(NS(=O)(=O)c3ccccc3Cl)c(F)c2)c2c(N)ncc(C3=CCC(NC4COC4)CC3)n12 (centres unmarked) [Example 10, N-(5-(8-Amino-3-isopropyl-5-(4-(oxetan-3-ylamino)cyclohex-1-en-1-yl)imidazo[1,5-a]pyrazin-1-yl)-3-fluoropyridin-2-yl)-2-chlorobenzenesulfonamide]",–
3100,420,"COc1ccc(S(=O)(=O)Nc2ccc(-c3nc(C(C)C)n4c(C5=CCC(NC6COC6)CC5)cnc(N)c34)cc2F)cn1 (centres unmarked) [Example 11, N-(4-(8-Amino-3-isopropyl-5-(4-(oxetan-3-ylamino)cyclohex-1-en-1-yl)imidazo[1,5-a]pyrazin-1-yl)-2-fluorophenyl)-6-methoxypyridine-3-sulfonamide]",–
6600,140,"CC(C)c1nc(-c2ccc(NS(=O)(=O)c3ccc(C(F)(F)F)nc3)c(F)c2)c2c(N)ncc(C3=CCC(NC4COC4)CC3)n12 (centres unmarked) [Example 12, N-(4-(8-Amino-3-isopropyl-5-(4-(oxetan-3-ylamino)cyclohex-1-en-1-yl)imidazo[1,5-a]pyrazin-1-yl)-2-fluorophenyl)-6-(trifluoromethyl)pyridine-3-sulfonamide]",–
6400,360,"Cc1cncc(S(=O)(=O)Nc2ccc(-c3nc(C(C)C)n4c(C5=CCC(NC6COC6)CC5)cnc(N)c34)cc2F)c1 (centres unmarked) [Example 13, N-(4-(8-Amino-3-isopropyl-5-(4-(oxetan-3-ylamino)cyclohex-1-en-1-yl)imidazo[1,5-a]pyrazin-1-yl)-2-fluorophenyl)-5-methylpyridine-3-sulfonamide]",–
5400,–,"CC(C)c1nc(-c2ccc(NS(=O)(=O)c3ccccn3)c(F)c2)c2c(N)ncc(C3=CCC(NC4COC4)CC3)n12 (centres unmarked) [Example 14, N-(4-(8-Amino-3-isopropyl-5-(4-(oxetan-3-ylamino)cyclohex-1-en-1-yl)imidazo[1,5-a]pyrazin-1-yl)-2-fluorophenyl)pyridine-2-sulfonamide]",–
6500,480,"Cc1nc(S(=O)(=O)Nc2ccc(-c3nc(C(C)C)n4c(C5=CCC(NC6COC6)CC5)cnc(N)c34)cc2F)cs1 (centres unmarked) [Example 15, N-(4-(8-Amino-3-isopropyl-5-(4-(oxetan-3-ylamino)cyclohex-1-en-1-yl)imidazo[1,5-a]pyrazin-1-yl)-2-fluorophenyl)-2-methylthiazole-4-sulfonamide]",–
110,11,"CC(C)c1nc(-c2ccc(NS(=O)(=O)c3ccccc3Cl)c(F)c2)c2c(N)ncc(C3=CCC(NCCS(C)(=O)=O)CC3)n12 (centres unmarked) [Example 16, N-(4-(8-Amino-3-isopropyl-5-(4-((2-(methylsulfonyl)ethyl)amino)cyclohex-1-en-1-yl)imidazo[1,5-a]pyrazin-1-yl)-2-fluorophenyl)-2-chlorobenzenesulfonamide]",–
7450,40,"Cc1nc(CS(=O)(=O)Nc2ccc(-c3nc(C(C)C)n4c(C5=CCC(N)CC5)cnc(N)c34)cc2F)cs1 (centres unmarked) [Example 17, N-(4-(8-Amino-5-(4-aminocyclohex-1-en-1-yl)-3-isopropylimidazo[1,5-a]pyrazin-1-yl)-2-fluorophenyl)-1-(2-methylthiazol-4-yl)methanesulfonamide]",–
85,82,"CC(C)c1nc(-c2ccc(NS(=O)(=O)c3ccccc3Cl)c(F)c2)c2c(N)ncc(C3=CCC(N4CCOCC4)CC3)n12 (centres unmarked) [Example 18, N-(4-(8-Amino-3-isopropyl-5-(4-morpholinocyclohex-1-en-1-yl)imidazo[1,5-a]pyrazin-1-yl)-2-fluorophenyl)-2-chlorobenzenesulfonamide]",–
41,44,"COCCNC1CC=C(c2cnc(N)c3c(-c4ccc(NS(=O)(=O)c5ccccc5Cl)c(F)c4)nc(C(C)C)n23)CC1 (centres unmarked) [Example 19, N-(4-(8-amino-3-isopropyl-5-(4-((2-methoxyethyl)amino)cyclohex-1-en-1-yl)imidazo[1,5-a]pyrazin-1-yl)-2-fluorophenyl)-2-chlorobenzenesulfonamide]",–
> 10000,> 1000,"COc1nc(NS(=O)(=O)c2ccccc2Cl)ccc1-c1nc(C(C)C)n2c(C3=CCC(NC4COC4)CC3)cnc(N)c12 (centres unmarked) [Example 20, N-(5-(8-amino-3-isopropyl-5-(4-(oxetan-3-ylamino)cyclohex-1-en-1-yl)imidazo[1,5-a]pyrazin-1-yl)-6-methoxypyridin-2-yl)-2-chlorobenzenesulfonamide]",–
6100,> 1000,"Cc1nc(NS(=O)(=O)c2ccccc2Cl)ccc1-c1nc(C(C)C)n2c(C3=CCC(NC4COC4)CC3)cnc(N)c12 (centres unmarked) [Example 21, N-(5-(8-amino-3-isopropyl-5-(4-(oxetan-3-ylamino)cyclohex-1-en-1-yl)imidazo[1,5-a]pyrazin-1-yl)-6-methylpyridin-2-yl)-2-chlorobenzenesulfonamide]",–
1.7,1.5,CC(C)c1nc(-c2ccc(NS(=O)(=O)Cc3ccccc3Cl)c(F)c2)c2c(N)ncc(C3=CCC(N(C)C)CC3)n12 (centres unmarked) [Example 22],–

Compound,IC50 (XBP1 splicing; Homo sapiens) [nM],IC50 (IRE1α) [nM],IC50 (XBP1 splicing) [nM]
"CC(C)c1nc(-c2ccc(NS(=O)(=O)c3ccccc3Cl)c(F)c2)c2c(N)ncc([C@H]3CC[C@H](NC4COC4)CC3)n12 [Example 4, N-(4-(8-Amino-3-isopropyl-5-((1r,4r)-4-(oxetan-3-ylamino)cyclohexyl)imidazo[1,5-a]pyrazin-1-yl)-2-fluorophenyl)-2-chlorobenzene sulfonamide]",–,6.4,5
